Data: ChEMBL document CHEMBL1201862, “PubChem BioAssay data set” (2004)
Calls of active or inactive are those of the source.

Tests used:
[1] = A Cell Based Secondary Assay To Explore Cytotoxicity of Compounds that Sensitize Mycobacterium Tuberculosis to Beta-Lactam Antibiotics.; type: functional
[2] = Luminescence Cell-Based Dose Retest to Confirm Inhibitors of Cancer Stem Cells. [Related pubchem assays (depositor defined):AID2717, AID2721]; type: functional; details: Homo sapiens
[3] = target: Heat shock protein HSP 90-alpha (Homo sapiens, UniProt P07900); type: functional, organism-based
[4] = viability loss in human Jurkat cells – cell-based, luminescence, cytotoxicity control for P. falciparum gametocyte viability project, dose response (AID 1117277); type: functional;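 also: potency reflects loss of cellular ATP meaning fewer viable cells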
[5] = viability inhibitors of stage V gametocytes – luminescence, dose response (AID 1117278); type: functional, cell-based;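 also: gametocytes exposed to compound for 24 hours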
[6] = test system: H9c2; assay: cells; type: functional, cell-based; details: Rattus norvegicus, H9c2, Myocardium;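 also: confirmatory concentration-response retest of ultra-high-throughput screening hits for modulation of myocardial damage; cell death induced by hydrogen peroxide oxidative stress; compound pretreatment for 60 min then peroxide exposure for 2 h; potency is for protecting the cells against peroxide damage rather than for killing them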
[7] = blockers of bursicon-stimulated LGR2 cAMP reporter – cell-based, HEK293, CRE-luciferase reporter, cherry pick, set 2, dose response (AID 743343); type: functional;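 also: transfected cells were stimulated with diluted bursicon conditioned medium after compound addition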
[8] = viability loss in HEK293 cells – cell-based, plate reader, cherry-picked samples, cytotoxicity control, dose response (AID 743446); type: functional
[9] = blockade of melanocortin 4 receptor signaling – cell-based, plate reader, cherry pick, counter-screen for LGR2 antagonist project, dose response (AID 743444); type: functional;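 also: transfected HEK 293 cells stimulated with alpha-MSH peptide; potency of inhibitors of the alpha-MSH evoked signal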
[10] = A549 cell cytotoxicity, dose response, cytotoxicity control, plate reader, cherry-pick, antagonist series (AID 743412); type: functional, cell-based
[11] = toxicity toward HepG2 liver cells – cell-based, plate reader, cherry-pick, antagonist series, cytotoxicity control, dose response (AID 743416); type: functional
[12] = target: T1, Calpain-2 catalytic subunit (Sus scrofa, UniProt P43367); assay: m-calpain protease blockers, concentration series – biochemical, fluorogenic peptide substrate, dose response (AID 1420); type: functional
T1 sequence (P43367 whole entry): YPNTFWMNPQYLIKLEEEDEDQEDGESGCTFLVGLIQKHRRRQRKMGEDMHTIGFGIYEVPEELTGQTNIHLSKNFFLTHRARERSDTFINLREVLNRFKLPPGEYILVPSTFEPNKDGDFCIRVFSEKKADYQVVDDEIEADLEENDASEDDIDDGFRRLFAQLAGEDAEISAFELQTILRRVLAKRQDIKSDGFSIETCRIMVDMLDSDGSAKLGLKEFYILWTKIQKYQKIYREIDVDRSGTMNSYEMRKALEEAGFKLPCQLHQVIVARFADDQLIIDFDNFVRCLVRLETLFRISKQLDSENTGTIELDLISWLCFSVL

[13] = target: T2, Rac GTPase-activating protein 1 (Homo sapiens, UniProt Q9H0H5); assay: blockers of MgcRacGAP-driven Rac1 GTP hydrolysis – biochemical, ADP Hunter fluorescence, primary and confirmatory, confirmation (AID 624330); type: functional
T2 sequence (Q9H0H5 whole entry): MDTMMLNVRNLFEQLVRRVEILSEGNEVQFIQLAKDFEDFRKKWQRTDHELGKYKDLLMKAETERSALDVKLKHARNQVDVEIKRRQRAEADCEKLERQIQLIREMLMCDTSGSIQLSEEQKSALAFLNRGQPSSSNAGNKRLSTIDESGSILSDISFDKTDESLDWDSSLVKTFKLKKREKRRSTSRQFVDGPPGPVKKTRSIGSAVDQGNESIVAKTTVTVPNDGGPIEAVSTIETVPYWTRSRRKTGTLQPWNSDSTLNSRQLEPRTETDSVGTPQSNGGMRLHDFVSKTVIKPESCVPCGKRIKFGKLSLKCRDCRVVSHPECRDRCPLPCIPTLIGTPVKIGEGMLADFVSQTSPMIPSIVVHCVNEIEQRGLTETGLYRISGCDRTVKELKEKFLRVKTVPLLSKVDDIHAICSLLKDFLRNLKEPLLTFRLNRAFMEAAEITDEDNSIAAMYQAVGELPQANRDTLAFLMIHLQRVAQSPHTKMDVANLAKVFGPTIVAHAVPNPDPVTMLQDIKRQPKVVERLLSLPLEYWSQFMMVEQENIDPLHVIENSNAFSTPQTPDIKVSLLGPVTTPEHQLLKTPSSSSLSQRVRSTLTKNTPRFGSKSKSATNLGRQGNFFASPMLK

[14] = viability loss in HeLa cells – cytotoxicity control for MgcRacGAP inhibitor project, dose response (AID 624300); type: functional
[15] = target: T3, Apoptotic protease-activating factor 1 (Homo sapiens, UniProt O14727); type: functional
T3 sequence (O14727 whole entry): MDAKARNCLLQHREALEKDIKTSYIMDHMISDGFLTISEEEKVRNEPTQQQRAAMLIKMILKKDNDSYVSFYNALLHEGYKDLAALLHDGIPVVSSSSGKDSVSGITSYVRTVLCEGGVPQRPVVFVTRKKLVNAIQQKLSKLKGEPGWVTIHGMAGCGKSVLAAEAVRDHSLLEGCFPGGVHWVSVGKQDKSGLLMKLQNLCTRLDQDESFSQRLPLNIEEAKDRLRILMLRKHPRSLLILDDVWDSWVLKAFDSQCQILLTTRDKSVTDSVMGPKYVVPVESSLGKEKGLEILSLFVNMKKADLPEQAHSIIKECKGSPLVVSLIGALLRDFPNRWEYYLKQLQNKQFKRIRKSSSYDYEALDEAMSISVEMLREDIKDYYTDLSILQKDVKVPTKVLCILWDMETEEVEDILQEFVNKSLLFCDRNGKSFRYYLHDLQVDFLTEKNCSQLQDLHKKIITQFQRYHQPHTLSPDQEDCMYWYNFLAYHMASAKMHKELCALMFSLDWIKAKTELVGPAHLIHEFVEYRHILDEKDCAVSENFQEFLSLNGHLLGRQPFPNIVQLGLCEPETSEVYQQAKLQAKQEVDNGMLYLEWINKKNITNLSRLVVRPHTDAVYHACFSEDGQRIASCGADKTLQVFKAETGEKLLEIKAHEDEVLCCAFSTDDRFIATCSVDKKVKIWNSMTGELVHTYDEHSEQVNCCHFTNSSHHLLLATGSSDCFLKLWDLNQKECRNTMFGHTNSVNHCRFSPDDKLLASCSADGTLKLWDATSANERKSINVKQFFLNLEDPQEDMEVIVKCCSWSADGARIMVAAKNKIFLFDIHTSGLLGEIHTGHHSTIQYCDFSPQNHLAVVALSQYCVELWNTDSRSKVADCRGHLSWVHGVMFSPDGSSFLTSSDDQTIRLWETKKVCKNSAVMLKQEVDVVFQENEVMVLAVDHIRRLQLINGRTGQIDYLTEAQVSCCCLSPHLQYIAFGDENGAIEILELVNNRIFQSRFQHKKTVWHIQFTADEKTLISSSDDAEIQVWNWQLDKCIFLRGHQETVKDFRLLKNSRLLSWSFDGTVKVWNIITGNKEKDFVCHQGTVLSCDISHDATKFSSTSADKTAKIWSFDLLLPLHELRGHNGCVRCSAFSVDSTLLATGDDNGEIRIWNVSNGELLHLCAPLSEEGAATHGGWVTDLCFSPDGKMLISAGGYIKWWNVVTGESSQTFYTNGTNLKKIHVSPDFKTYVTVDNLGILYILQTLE

[16] = target: T4, Corticotropin-releasing factor receptor 2/Corticotropin-releasing factor-binding protein (Homo sapiens, UniProt P24387+Q13324); assay: activators of CRF receptor 2 with binding protein – uHTS hits, confirmation (AID 602473); type: functional; details: read-out: EC50_Mean
T4 sequence (Q13324 whole entry): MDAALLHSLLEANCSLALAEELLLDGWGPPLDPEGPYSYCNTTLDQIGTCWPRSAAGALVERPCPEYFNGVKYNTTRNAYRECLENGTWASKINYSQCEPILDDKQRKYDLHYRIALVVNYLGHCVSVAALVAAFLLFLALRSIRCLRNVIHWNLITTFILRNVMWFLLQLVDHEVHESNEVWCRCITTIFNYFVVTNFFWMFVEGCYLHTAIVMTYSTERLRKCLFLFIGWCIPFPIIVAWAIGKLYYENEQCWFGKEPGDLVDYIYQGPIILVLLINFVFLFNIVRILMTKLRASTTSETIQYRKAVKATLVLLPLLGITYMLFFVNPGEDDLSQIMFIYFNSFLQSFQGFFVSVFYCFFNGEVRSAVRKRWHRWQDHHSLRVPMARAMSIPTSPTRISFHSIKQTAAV
T4 sequence (P24387 whole entry): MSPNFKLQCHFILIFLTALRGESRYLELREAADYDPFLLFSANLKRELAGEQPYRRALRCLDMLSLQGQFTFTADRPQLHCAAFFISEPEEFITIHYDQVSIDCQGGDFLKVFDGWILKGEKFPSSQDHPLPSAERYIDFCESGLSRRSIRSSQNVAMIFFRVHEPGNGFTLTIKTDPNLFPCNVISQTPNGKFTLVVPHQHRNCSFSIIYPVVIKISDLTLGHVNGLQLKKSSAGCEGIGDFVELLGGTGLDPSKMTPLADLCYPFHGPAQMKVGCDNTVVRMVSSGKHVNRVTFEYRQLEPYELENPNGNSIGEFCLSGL

[17] = Dd2 malaria parasite growth inhibition potency – SYBR Green, dry powder samples, dose response (AID 1159566); type: functional, cell-based;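 also: potency for growth inhibition with lower SYBR green DNA signal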
[18] = growth inhibition of PfATP4-mutant resistant parasites – NITD609-resistant line, SYBR Green, dry powder, dose response (AID 1159571); type: functional, cell-based;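 also: parasites synchronized at ring stage by sorbitol before testing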
[19] = growth inhibition of yeast DHODH-expressing 3D7 parasites – SYBR Green, dry powder samples, dose response (AID 1159570); type: functional, cell-based;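 also: parasite growth measured after 72 hours of compound exposure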
[20] = P. falciparum Dd2 growth inhibitors, dose response, SYBR Green, cherry-picked samples (AID 1159567); type: functional, cell-based
[21] = HIV-1 Vif–A3G interaction blockers – biochemical, TR-FRET, GST-Vif 1-94, biotin-A3G peptide, dose response retest, primary screen (AID 1117319); type: functional;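 also: TR-FRET signal of purified GST-Vif binding a biotinylated A3G peptide; inhibitors lower the FRET signal by blocking Vif and A3G binding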
[22] = test system: HeLa; assay: viability loss in HeLa cells – cell-based, 24 h, cherry-picked samples, cytotoxicity control, dose response (AID 504726); type: functional; details: Homo sapiens;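 also: potency for cytotoxicity as loss of luminescence signal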

CC(=O)Nc1nonc1-c1nc2ccccc2n1CCC(C)C
CC50 [1]: > 40 µM (active)

Cc1cc2ccccn2c1C(=O)c1ccc([N+](=O)[O-])o1
AC50 [2]: 2.84 µM (active) | CC50 [1]: 8.69 µM (active) | AC50 [3]: 3.38 µM (active)

CN(C)S(=O)(=O)N(CC(=O)Nc1ccccc1)c1ccccc1
IC50 [4]: > 83.3 µM (inactive) | IC50 [5]: > 109 µM (inactive)

O=C(c1cc(O)nc2ccccc12)N1CCN(S(=O)(=O)c2ccc3ccccc3c2)CC1
IC50 [6]: > 79 µM (inactive)

O=C(/C=C/c1ccc2c(c1)OCO2)Nc1nc2ccccc2s1
CC50 [1]: > 40 µM (active)

COc1ccc(C(=O)Nc2nc3ccccc3[nH]2)cc1
AC50 [7]: 2.45 µM (active) | AC50 [8]: > 52 µM (inactive) | AC50 [9]: 2.84 µM (active) | AC50 [10]: 34.6 µM (active) | AC50 [11]: > 52 µM (inactive)

CCC(CC)C(=O)Nc1ccc(S(=O)(=O)Nc2nccs2)cc1
IC50 [12]: 11.7 µM (not active)

CCCCN(CC)CCNC(=O)CN(C)S(=O)(=O)c1ccc2c(c1)c(=O)n(C)c(=O)n2C
IC50 [4]: > 83.3 µM (inactive) | IC50 [5]: > 109 µM (inactive)

Nc1ccc(Cn2ccc3c4c(N)nc(N)nc4ccc32)cc1
IC50 [13]: 77 µM (active) | CC50 [14]: 49.5 µM (active)

CN(Cc1ccc(F)cc1)C(=O)CNC(=O)c1cccs1
IC50 [15]: > 100 µM (inactive)

CC(C)(C)/N=C/c1c(O)ccc2oc3c(c12)CCCC3
IC50 [6]: > 79 µM (inactive) | EC50 [16]: > 53 µM (inactive)

C[C@@H]1CN([C@H](C)CO)C(=O)c2cc(/C=C/c3ccccc3)cnc2O[C@H]1CN(C)C(=O)NC1CCCCC1
AC50 [17]: 1.06 µM (active) | AC50 [18]: 1.76 µM (active) | AC50 [19]: 2.03 µM (active) | AC50 [20]: 2.73 µM (active)

COc1ccc(OC)c(/C(O)=C/C(=O)C(=O)Nc2ccccc2OC)c1
IC50 [21]: > 100 µM (active)

CC1=[N+](C)N(c2ccccc2)C(=O)C1/N=C/C=C/c1ccccc1 (stereo not drawn)
AC50 [22]: 308 µM (active)

O=C(CCN1CCOCC1)c1ccc(N2CCCCC2)cc1
CC50 [1]: 29.2 µM (active)
